# Reference: patent US9006278B2, “Controlled release systems of pluribioactive antifungal drugs and applications thereof” (Poly-Med, Inc., priority 2010, dated 2015)
# Key:
# Assay type in all cases: cell-based
# [1] = test system: MCF7 breast cancer cells; test: Cell viability, CellTiter 96 AQueous One (MCF7); settings: Homo sapiens, MCF7, 48 h, 2 days
# Protocol: (§1) To examine the effect of miconazole and ketoconazole on cancer cells (SKOV3, OVCAR3, and MCF7) and vascular cells (human aortic smooth muscle and umbilical vein endothelium), each cell type was seeded in separate 24-well plates at a density of approximately 50,000 to 100,000 cells/cm^2. After incubation under standard cell culture conditions (that is, a 37° C., humidified, 5% CO2 environment) for approximately 24 hours, media was aspirated from each well, and replaced with the appropriate treatments. Miconazole or ketoconazole was dissolved in ethanol to create a stock solution. […] The same volume of ethanol was added to control wells, but no drug was present. Cells were further incubated for 2 days. At that time, cell viability was measured using a commercially available kit, according to manufacturer instructions (CellTiter 96® AQueous One Solution Cell Proliferation Assay, Promega). All samples were prepared in triplicate. Percent inhibition was then calculated using the absorbance values.
# [2] = test system: Candida albicans; test: Broth culture growth inhibition, absorbance at 600 nm (Candida albicans); settings: overnight (approx. 16 hours), read-out: % Inhibition C. albicans
# Protocol: (§2) Bacterial and fungal cultures (Staphylococcus aureus and Candida albicans) were maintained according to manufacturer (ATCC) instructions. Broth was inoculated according to 0.5 McFarland standard (0.05 absorbance reading). Miconazole or ketoconazole was dissolved in ethanol to create a stock solution. Cultures were incubated overnight (approximately 16 hours), at which time relative absorbance was recorded for each sample using a spectrophotometer (600 nm wavelength). Absorbance values were then used to calculate percent inhibition.
# [3] = test system: OVCAR3 ovarian cancer cells; test: Cell viability, CellTiter 96 AQueous One (OVCAR3); settings: Homo sapiens, OVCAR-3, 48 h, 2 days
# Protocol: as §1
# [4] = test system: human aortic smooth muscle cells; test: Cell viability, CellTiter 96 AQueous One (smooth muscle); settings: 48 h, 2 days
# Protocol: as §1
# [5] = test system: Staphylococcus aureus; test: Broth culture growth inhibition, absorbance at 600 nm (Staphylococcus aureus); settings: overnight (approx. 16 hours), read-out: % Inhibition S. aureus
# Protocol: as §2
# [6] = test system: SKOV3 ovarian cancer cells; test: Cell viability, CellTiter 96 AQueous One (SKOV3); settings: Homo sapiens, SK-OV-3, 48 h, 2 days
# Protocol: as §1
# [7] = test system: umbilical vein endothelium cells; test: Cell viability, CellTiter 96 AQueous One (endothelium); settings: Homo sapiens, 48 h, 2 days, read-out: % Inhibition Endothelial
# Protocol: as §1
smiles,measurement,setting,value
"CC(=O)N1CCN(c2ccc(OCC3COC(Cn4ccnc4)(c4ccc(Cl)cc4Cl)O3)cc2)CC1 (stereo not shown) [Ketoconazole, ketoconazole]",inhibition at 40 µg/mL,[1]; 40 μg/mL,58%
same,inhibition at 80 µg/mL,[1]; 80 μg/mL,50%
same,inhibition at 40 µg/mL,[2]; 40 μg/mL,93.8%
same,inhibition at 80 µg/mL,[2]; 80 μg/mL,98.6%
same,inhibition at 40 µg/mL,[3]; 40 μg/mL,0%
same,inhibition at 80 µg/mL,[3]; 80 μg/mL,57%
same,inhibition at 40 µg/mL,[4]; 40 μg/mL,31%
same,inhibition at 80 µg/mL,[4]; 80 μg/mL,68%
same,inhibition at 40 µg/mL,[5]; 40 μg/mL,32.7%
same,inhibition at 80 µg/mL,[5]; 80 μg/mL,67.6%
same,inhibition at 40 µg/mL,[6]; 40 μg/mL,0%
same,inhibition at 80 µg/mL,[6]; 80 μg/mL,51%
same,inhibition at 40 µg/mL,[7]; 40 μg/mL,16%
same,inhibition at 80 µg/mL,[7]; 80 μg/mL,38%
"Clc1ccc(COC(Cn2ccnc2)c2ccc(Cl)cc2Cl)c(Cl)c1 (stereo not shown) [Miconazole, miconazole]",inhibition at 20 µg/mL,[1]; 20 μg/mL,19%
same,inhibition at 60 µg/mL,[1]; 60 μg/mL,55%
same,inhibition at 20 µg/mL,[2]; 20 μg/mL,98.3%
same,inhibition at 60 µg/mL,[2]; 60 μg/mL,73.2%
same,inhibition at 20 µg/mL,[3]; 20 μg/mL,19%
same,inhibition at 60 µg/mL,[3]; 60 μg/mL,57%
same,inhibition at 20 µg/mL,[4]; 20 μg/mL,58%
same,inhibition at 60 µg/mL,[4]; 60 μg/mL,84%
same,inhibition at 20 µg/mL,[5]; 20 μg/mL,76.7%
same,inhibition at 60 µg/mL,[5]; 60 μg/mL,65%
same,inhibition at 20 µg/mL,[6]; 20 μg/mL,13%
same,inhibition at 60 µg/mL,[6]; 60 μg/mL,61%
same,inhibition at 20 µg/mL,[7]; 20 μg/mL,18%
same,inhibition at 60 µg/mL,[7]; 60 μg/mL,58%
